Toxic doses and inconclusive results are not listed. Rule as the data show it: active = T/C of 150% or more; inactive = T/C below 125%.
Tested on: L1210 leukemia ip in BDF1 mice, survival T/C
Assay: NCI In Vivo Anticancer Drug Screen. Data for tumor model L1210 Leukemia (intraperitoneal) in B6D2F1 (BDF1) mice
Conditions: endpoint: mean survival time, higher = longer survival
Summary of the method: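 Read-out is survival time, reported as the treated-group measurement over the vehicle-control measurement.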

[1] = dose: 100.0 mg/kg/injection, schedule: Q01DX001 (ip), vehicle: other
[2] = dose: 100.0 mg/kg/injection, schedule: Q01DX001 (ip), vehicle: saline
[3] = dose: 200.0 mg/kg/injection, schedule: Q01DX001 (ip), vehicle: saline
[4] = dose: 400.0 mg/kg/injection, schedule: Q01DX001 (ip), vehicle: saline
[5] = dose: 100.0 mg/kg/injection, schedule: Q01DX009 (ip), vehicle: Klucel (hydroxypropylcellulose) (HPC)
[6] = dose: 100.0 mg/kg/injection, schedule: Q04DX003 (ip), vehicle: Klucel (hydroxypropylcellulose) (HPC)
[7] = dose: 200.0 mg/kg/injection, schedule: Q01DX009 (ip), vehicle: Klucel (hydroxypropylcellulose) (HPC)
[8] = dose: 200.0 mg/kg/injection, schedule: Q04DX003 (ip), vehicle: Klucel (hydroxypropylcellulose) (HPC)
[9] = dose: 400.0 mg/kg/injection, schedule: Q01DX009 (ip), vehicle: Klucel (hydroxypropylcellulose) (HPC)
[10] = dose: 400.0 mg/kg/injection, schedule: Q04DX003 (ip), vehicle: Klucel (hydroxypropylcellulose) (HPC)
[11] = dose: 50.0 mg/kg/injection, schedule: Q01DX001 (ip), vehicle: carboxymethylcellulose (CMC)
[12] = dose: 100.0 mg/kg/injection, schedule: Q01DX001 (ip), vehicle: carboxymethylcellulose (CMC)
[13] = dose: 100.0 mg/kg/injection, schedule: Q01DX009 (ip), vehicle: saline with Tween-80
[14] = dose: 100.0 mg/kg/injection, schedule: Q04DX003 (ip), vehicle: saline with Tween-80
[15] = dose: 200.0 mg/kg/injection, schedule: Q01DX001 (ip), vehicle: carboxymethylcellulose (CMC)
[16] = dose: 200.0 mg/kg/injection, schedule: Q01DX009 (ip), vehicle: saline with Tween-80
[17] = dose: 200.0 mg/kg/injection, schedule: Q04DX003 (ip), vehicle: saline with Tween-80
[18] = dose: 400.0 mg/kg/injection, schedule: Q01DX001 (ip), vehicle: carboxymethylcellulose (CMC)
[19] = dose: 400.0 mg/kg/injection, schedule: Q01DX009 (ip), vehicle: saline with Tween-80
[20] = dose: 400.0 mg/kg/injection, schedule: Q04DX003 (ip), vehicle: saline with Tween-80
[21] = dose: 100.0 mg/kg/injection, schedule: Q04DX003 (ip), vehicle: saline
[22] = dose: 200.0 mg/kg/injection, schedule: Q04DX003 (ip), vehicle: saline
[23] = dose: 400.0 mg/kg/injection, schedule: Q04DX003 (ip), vehicle: saline

Measured: T/C

Cc1cc(N=Cc2cccc([N+](=O)[O-])c2O)c2ccccc2n1
inactive: [1] 101 % of control

COC(=O)/C=C(\C)Nc1ccc([N+](=O)[O-])cc1
inactive: [2] 97 % of control | [3] 93 % of control | [4] 92 % of control

CCCCCCCCCCCCCCC(=O)c1ccccc1
inactive: [5] 100 % of control | [6] 105 % of control | [7] 102 % of control | [8] 102 % of control | [9] 95 % of control | [10] 104 % of control

Nc1c(Cl)cc([N+](=O)[O-])cc1Cl
inactive: [11] 95 % of control | [12] 92 % of control | [13] 103 % of control | [14] 97 % of control | [15] 106 % of control | [16] 92 % of control | [17] 93 % of control | [18] 95 % of control | [19] 95 % of control | [20] 93 % of control

O=C(O)CS(=O)(=O)CC(=O)O
inactive: [14] 98 % of control | [17] 93 % of control

CC1(C)SC(C)(C)C1=O
inactive: dose: 50.0 mg/kg/injection, schedule: Q04DX002 (ip), vehicle: gum acacia 100 % of control | dose: 100.0 mg/kg/injection, schedule: Q04DX002 (ip), vehicle: gum acacia 96 % of control | dose: 200.0 mg/kg/injection, schedule: Q04DX002 (ip), vehicle: gum acacia 107 % of control

CC(=O)N1c2ccccc2Sc2ccc(C(=O)CCl)cc21
inactive: [11] 96 % of control | [12] 98 % of control | [15] 96 % of control | [18] 98 % of control

Cc1cc(N(C)C)nc(N(C)C)n1
inactive: [1] 93 % of control | dose: 100.0 mg/kg/injection, schedule: Q04DX003 (ip), vehicle: other 103 % of control | dose: 200.0 mg/kg/injection, schedule: Q01DX001 (ip), vehicle: other 101 % of control | dose: 200.0 mg/kg/injection, schedule: Q04DX003 (ip), vehicle: other 97 % of control | dose: 250.0 mg/kg/injection, schedule: Q01DX Z (ip), vehicle: methylcellulose (MC) 100 % of control | dose: 375.0 mg/kg/injection, schedule: Q01DX Z (ip), vehicle: methylcellulose (MC) 94 % of control | dose: 400.0 mg/kg/injection, schedule: Q01DX001 (ip), vehicle: other 91 % of control | dose: 400.0 mg/kg/injection, schedule: Q04DX003 (ip), vehicle: other 102 % of control | dose: 500.0 mg/kg/injection, schedule: Q01DX Z (ip), vehicle: methylcellulose (MC) 96 % of control

ICC1COCC(CI)O1 (stereo not drawn)
inactive: [13] 101 % of control | [16] 113 % of control | [19] 106 % of control

O=C(C[P+](c1ccccc1)(c1ccccc1)c1ccccc1)Nc1ccccc1
inactive: dose: 10.0 mg/kg/injection, schedule: Q01DX009 (ip), vehicle: Klucel (hydroxypropylcellulose) (HPC) 100 % of control | dose: 20.0 mg/kg/injection, schedule: Q01DX009 (ip), vehicle: Klucel (hydroxypropylcellulose) (HPC) 108 % of control | dose: 40.0 mg/kg/injection, schedule: Q01DX009 (ip), vehicle: Klucel (hydroxypropylcellulose) (HPC) 100 % of control | dose: 75.0 mg/kg/injection, schedule: Q01DX009 (ip), vehicle: Klucel (hydroxypropylcellulose) (HPC) 107 % of control

NC(N)=NN=C(c1ccc(F)cc1)c1ccc(F)cc1
inactive: dose: 4.0 mg/kg/injection, schedule: Q01DX Z (oral), vehicle: carboxymethylcellulose (CMC) 111 % of control | dose: 8.0 mg/kg/injection, schedule: Q01DX Z (oral), vehicle: carboxymethylcellulose (CMC) 104 % of control | dose: 10.0 mg/kg/injection, schedule: Q01DX001 (ip), vehicle: carboxymethylcellulose (CMC) 100 % of control

COC(=O)c1ccc(OC(=O)Nc2ccc(C)cc2)cc1
inactive: [5] 101 % of control | [7] 100 % of control | [9] 101 % of control

O=c1[nH]c(=O)ss1
inactive: [21] 100 % of control | [22] 94 % of control

[N-]=Cc1c(O)cccc1[N+](=O)[O-].[N-]=Cc1cc([N+](=O)[O-])ccc1O.[Ni+2]
inactive: dose: 12.5 mg/kg/injection, schedule: Q04DX003 (ip), vehicle: saline with Tween-80 95 % of control | dose: 25.0 mg/kg/injection, schedule: Q04DX003 (ip), vehicle: saline with Tween-80 98 % of control | dose: 50.0 mg/kg/injection, schedule: Q04DX003 (ip), vehicle: saline with Tween-80 95 % of control | [14] 92 % of control | [17] 86 % of control

COc1cccc2sc3ccccc3c(=O)c12
inactive: [13] 102 % of control | [14] 101 % of control | [16] 86 % of control | [17] 102 % of control | [19] 87 % of control | [20] 87 % of control

COc1cc(/C=N/N2CCN(/N=C/c3cc(OC)c(OC)c(OC)c3)CC2)cc(OC)c1OC
inactive: [6] 103 % of control | [8] 101 % of control | [10] 103 % of control

CN=C1N[N+]2=C(C)CSCC2(C)S1 (stereo not drawn)
inactive: [21] 98 % of control | [22] 98 % of control | [23] 89 % of control

Cc1nc[nH]c(=O)c1CCC1OCCO1
inactive: [21] 93 % of control | [22] 98 % of control | [23] 98 % of control

CCCCSc1n[nH]c(=O)nc1SC
inactive: dose: 100.0 mg/kg/injection, schedule: Q01DX001 (ip), vehicle: acetone 104 % of control

COC(c1ccccc1)(c1ccccc1)c1ccccc1
inactive: dose: 50.0 mg/kg/injection, schedule: Q01DX001 (ip), vehicle: saline 91 % of control | [2] 103 % of control | [3] 101 % of control | [4] 95 % of control

O=C(O)CNc1ccccc1C(=O)O
inactive: [5] 105 % of control | [6] 102 % of control | [7] 98 % of control | [8] 97 % of control | [9] 92 % of control | [10] 96 % of control

O=P(N1CCCCC1)(N1CC1)N1CC1
inactive: dose: 0.5 mg/kg/injection, schedule: Q01DX Z (ip), vehicle: saline 117 % of control | dose: 3.8 mg/kg/injection, schedule: Q01DX015 (ip), vehicle: saline 106 % of control | dose: 4.0 mg/kg/injection, schedule: Q01DX011 (ip), vehicle: saline 113 % of control | dose: 5.0 mg/kg/injection, schedule: Q01DX001 (ip), vehicle: saline 107 % of control | dose: 7.5 mg/kg/injection, schedule: Q01DX015 (ip), vehicle: saline 124 % of control | dose: 9.0 mg/kg/injection, schedule: Q01DX Z (ip), vehicle: saline 94 % of control | dose: 10.0 mg/kg/injection, schedule: Q01DX001 (ip), vehicle: saline 100 % of control | dose: 13.5 mg/kg/injection, schedule: Q01DX Z (ip), vehicle: saline 94 % of control | dose: 15.0 mg/kg/injection, schedule: Q01DX011 (ip), vehicle: saline 95 % of control | dose: 20.0 mg/kg/injection, schedule: Q01DX001 (ip), vehicle: saline 122 % of control | dose: 21.0 mg/kg/injection, schedule: Q01DX Z (ip), vehicle: saline 114 % of control | dose: 30.0 mg/kg/injection, schedule: Q01DX015 (ip), vehicle: saline 106 % of control
active: dose: 2.0 mg/kg/injection, schedule: Q01DX Z (ip), vehicle: saline 158 % of control | dose: 6.0 mg/kg/injection, schedule: Q01DX Z (ip), vehicle: saline 202 % of control | dose: 8.0 mg/kg/injection, schedule: Q01DX011 (ip), vehicle: saline 150 % of control | dose: 40.0 mg/kg/injection, schedule: Q01DX001 (ip), vehicle: saline 169 % of control

O=S1CCOCC1.O=S1CCOCC1.O=S1CCOCC1.O=S1CCOCC1.O=S1CCOCC1.O=S1CCOCC1.[Hg+2].[O-][Cl+3]([O-])([O-])O
inactive: dose: 3.0 mg/kg/injection, schedule: Q01DX009 (ip), vehicle: Klucel (hydroxypropylcellulose) (HPC) 93 % of control | dose: 6.0 mg/kg/injection, schedule: Q01DX009 (ip), vehicle: Klucel (hydroxypropylcellulose) (HPC) 92 % of control | dose: 12.5 mg/kg/injection, schedule: Q01DX009 (ip), vehicle: Klucel (hydroxypropylcellulose) (HPC) 98 % of control
